Test results published in patent publication US6211170A, “Azetidinone derivatives for the treatment of HCMV infections” (Boehringer Ingelheim (Canada) Ltd., priority 1998, dated 2001).
Like-named read-outs stand apart in the source and are kept apart here.

Tests used:
[1] = system: HCMV (strain AD169, ATCC VR-538); assay: Plaque Reduction Assay (PRA) in HCMV-infected Hs-68 cells; type: cell-based, human cytomegalovirus (HCMV)
Procedure: B. Plaque Reduction Assay (PRA):
Hs-68 cells (ATCC # CRL 1635) were seeded in 12-well plates at 83,000 cells/well in 1 mL of DMEM medium (Gibco Canada Inc.) supplemented with 10% fetal bovine serum (FBS, Gibco Canada Inc.). The plates were incubated for 3 days at 37° to allow the cells to reach 80-90% confluency prior to the assay.
The medium was removed from the cells by aspiration. The cells were then infected with approximately 50 PFU of HCMV (strain AD169, ATCC VR-538) in DMEM medium supplemented with 5% inactivated FBS (assay medium). (DMEM medium is commercially available and has been described by R. Dulbecco et al., Virology 1959, 8, 396.) The virus was allowed to adsorb to cells for 2 h at 37°. Following viral adsorption, the medium was removed from the wells by aspiration. The cells were then incubated with or without 1 mL of appropriate concentrations of test reagent in assay medium. Occasionally, test compounds were added 24 h post-infection. After 4 days of incubation at 37°, the medium was exchanged with fresh medium containing test compound and 4 days later the cells were fixed with 1% aqueous formaldehyde and stained with a 2% violet solution in 20% ethanol in water. Microscopic plaques were counted using a stereomicroscope. Drug effects were calculated as a percent reduction in the number of plaques in the presence of each drug concentration compared to the number observed in the absence of drug. Ganciclovir was used as a positive control in all experiments.

HCMV NO protease = target: T1, HCMV NO protease (Human cytomegalovirus, UniProt P16753); assay: HCMV NO Protease Assay (fluorogenic substrate cleavage); type: biochemical; settings: HCMV NO protease 100 nM, substrate 5 μM, pH 8, 2.5 h at 30°
T1 construct: HCMV NO protease
T1 sequence (P16753 1-256): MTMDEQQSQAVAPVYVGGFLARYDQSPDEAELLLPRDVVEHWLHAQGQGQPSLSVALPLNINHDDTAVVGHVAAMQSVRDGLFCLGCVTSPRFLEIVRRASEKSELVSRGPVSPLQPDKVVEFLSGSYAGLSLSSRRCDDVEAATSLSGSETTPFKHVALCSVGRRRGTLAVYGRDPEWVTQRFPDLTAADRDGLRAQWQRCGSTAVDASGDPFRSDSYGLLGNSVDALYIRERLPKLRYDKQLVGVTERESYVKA
Procedure: This particular assay determines the ability of a test compound to inhibit the activity (IC50) of HCMV protease. More specifically, in the assay described herein, the inhibitory activity of the test compound is evaluated on the basis of its ability to interfere with the HCMV NO protease cleavage of a fluorogenic peptide substrate which in turn is based on the maturation cleavage site of the enzyme.
1. HCMV NO Protease Assay
Material & Methods: Fluorescence measurements were recorded on a Perkin-Elmer LS-50B spectrofluorimeter equipped with a plate reader accessory. UV measurements were recorded on a Thermomax® microplate reader from Molecular Devices Corporation, Menlo Park, Calif., USA.
HCMV NO protease was assayed with an internally quenched fluorogenic substrate based on the maturation cleavage site (Abz-[…](3-NO2)R--OH, kcat /KM =260 M^-1 s^-1). The fluorescence increase upon cleavage of the Ala-Ser amide bond was monitored using excitation λ=312 nm (slit 2.5 nm) and emission λ=415 nm (slit 5 nm). A protocol adaptable to a 96-well plate format was designed for the determination of IC50 values of inhibitors.
After this period, enzymatic hydrolysis of the fluorogenic substrate in the absence of inhibitor led to about a 30% conversion. Quenching was not required before fluorescence measurement since the total scanning time by the plate reader accessory was brief relative to the duration of the reaction. The aqueous incubation buffer contained 50 mM tris(hydroxymethyl)aminomethane.HCl pH 8, 0.5M Na2 SO4, 50 mM NaCl, 0.1 mM EDTA, 1 mM tris(2-carboxyethyl)phosphine.HCl, 3% v/v DMSO and 0.05% w/v casein. The final concentrations of HCMV NO protease (expressed in terms of total monomer concentration) and substrate were 100 nM and 5 μM respectively. IC50 values were obtained through fitting of the inhibition curve to a competitive inhibition model using SAS NLIN procedure. The mode of inhibition was determined by measurements of the initial rates (in cuvettes) at various substrate concentrations in the buffer as described above. The IC50 values listed in the following tables were obtained according to this assay.

[2] = Cytotoxicity, tetrazolium salt (MTT) metabolic assay; type: cell-based; settings: cytotoxic effects, read-out: TC50 (the source's name)
Procedure: Cytotoxic effects noted as TC50 in the following tables were determined according to the tetrazolium salt (MTT) metabolic assay, F. Denizot and F. Lang, J. Immun. Meth., 1986, 89, 271.

[3] = Human betaherpesvirus 5, Hs68, 192 h, plaque reduction, HCMV strain AD169, Hs-68 cells, 8 days, read-out: EC50
[4] = Human betaherpesvirus 5, AD169, Hs68, 192 h

Row | Structure (SMILES) | EC50 [1, 3] | IC50 (HCMV NO protease) | CC50 [2] | EC50 [1, 4]
1 | O=C1C[C@H](CSc2ncccn2)N1C(=O)N1CCC[C@@H]1c1ccccc1 [Entry 403, 1-(2(R)-phenyl-pyrrolidine-1-carbonyl)-4-(pyrimidin-2-ylsulfanylmethyl)azetidin-2-one] | 95 µM | 14 µM | > 250 µM | 
2 | CN(C)C(=O)c1ccc(CN(C)C(=O)N2C(=O)C[C@@H]2CSc2ncccn2)cc1 [Entry 305] | 210 µM | 14 µM | > 250 µM | 
3 | CC[C@@H](NC(=O)N1C(=O)[C@@H](C)[C@@H]1CSc1ncccn1)c1ccccc1 [Entry 111] | 110 µM | 0.65 µM | > 250 µM | 
4 | CN(Cc1ccc(C(F)(F)F)cc1)C(=O)N1C(=O)C[C@@H]1CSc1nc2ccccc2o1 [Entry 319] | 160 µM | 1.7 µM | > 250 µM | 
5 | CC[C@@H](NC(=O)N1C(=O)C[C@@H]1[C@@H](C)Sc1ncccn1)c1ccccc1 [Entry 209, 2-oxo-4(R)-[1(R)-(pyrimidin-2-ylsulfanyl)ethyl]azetidine-1-carboxylic acid (1(R)-phenylpropyl)amide] | 80 µM | 3.4 µM | > 168 µM | 
6 | CC[C@@H](NC(=O)N1C(=O)[C@@H](C)[C@@H]1CSc1nnnn1C)c1ccccc1 [Entry 119] | 80 µM | 1.4 µM | > 250 µM | 
7 | CC[C@@H](NC(=O)N1C(=O)C[C@@H]1CSc1ccccn1)c1ccccc1 [Entry 103] | 150 µM | 4 µM | > 250 µM | 
8 | CC[C@@H](NC(=O)N1C(=O)[C@@H](C)[C@@H]1CSC1CCCCC1)c1ccccc1 [Entry 114] | > 250 µM | 3 µM | > 250 µM | 
9 | CC[C@@H](NC(=O)N1C(=O)C[C@@H]1COC(=O)c1cccc2ccccc12)c1ccccc1 [Entry 134] |  | 0.46 µM | > 13 µM | 9 µM
10 | CC[C@@H](NC(=O)N1C(=O)C[C@@H]1CSc1nc2ncccc2s1)c1ccccc1 [Entry 139] |  | 0.8 µM | > 53 µM | > 53 µM
11 | CN(Cc1ccc(F)cc1)C(=O)N1C(=O)C[C@@H]1CSc1ncccn1 [Entry 313] | 110 µM | 8.3 µM | > 250 µM | 
12 | CC[C@@H](NC(=O)N1C(=O)C[C@@H]1CS(=O)(=O)c1ccccc1)c1ccccc1 [Entry 144] | 5 µM | 1.9 µM | 58 µM | 
13 | CC[C@@H](NC(=O)N1C(=O)[C@@H](C)[C@@H]1CSC1CCCC1)c1ccccc1 [Entry 121] | 150 µM | 4.3 µM | > 250 µM | 
14 | CC[C@@H](NC(=O)N1C(=O)[C@@H](C)[C@@H]1CSc1nc2ccccc2s1)c1ccccc1 [Entry 109] | 160 µM | 1.2 µM | > 250 µM | 
15 | CN(Cc1ccc(C(=O)OCc2ccccc2)cc1)C(=O)N1C(=O)C[C@@H]1CSc1ncccn1 [Entry 304] | 120 µM | 2.5 µM | > 250 µM | 
16 | CC[C@@H](NC(=O)N1C(=O)C[C@@H]1CSc1nc2ccccc2s1)c1ccccc1 [Entry 106] | > 250 µM | 3.3 µM | > 250 µM | 

Row | Structure (SMILES) | EC50 [1, 3] | IC50 (HCMV NO protease) | CC50 [2] | EC50 [1, 4]
17 | CC[C@@H](NC(=O)N1C(=O)[C@@H](C)[C@@H]1CSc1nc(C)cc(C)n1)c1ccccc1 [Entry 126] | 25 µM | 2.8 µM | > 63 µM | 
18 | CC[C@@H](NC(=O)N1C(=O)C[C@@H]1CSc1nccc(C)n1)c1ccccc1 [Entry 124] | > 250 µM | 4 µM | > 250 µM | 
19 | CC[C@@H](NC(=O)N1C(=O)C[C@@H]1COc1ccccn1)c1ccccc1 [Entry 101] | 55 µM | 8.4 µM | 151 µM | 
20 | CC[C@@H](NC(=O)N1C(=O)C[C@@H]1CSc1nc2ccccc2o1)c1ccccc1 [Entry 141] |  | 0.8 µM | > 26 µM | 22 µM
21 | CC[C@@H](NC(=O)N1C(=O)C[C@@H]1COC(C)=O)c1ccccc1 [Entry 132] | 210 µM | 3 µM | > 250 µM | 
22 | CC[C@@H](NC(=O)N1C(=O)C[C@@H]1CSC)c1ccccc1 [Entry 127, 4(R)-(methylsulfanyl)methyl-2-oxoazetidine-1-carboxylic acid (1(R)-phenylpropyl)amide] | > 250 µM | 3.8 µM | > 250 µM | 
23 | CC[C@@H](NC(=O)N1C(=O)[C@@H](C)[C@@H]1CSc1nc2ncccc2s1)c1ccccc1 [Entry 125] | 140 µM | 1.1 µM | > 250 µM | 
24 | CC[C@@H](NC(=O)N1C(=O)[C@@H](C)[C@@H]1CSc1ccoc1C)c1ccccc1 [Entry 115] | 85 µM | 4.2 µM | > 250 µM | 
25 | CN(Cc1ccc(C(F)(F)F)cc1)C(=O)N1C(=O)C[C@@H]1CSc1ccncc1 [Entry 311] | 250 µM | 0.6 µM | > 250 µM | 
26 | CC[C@@H](NC(=O)N1C(=O)C[C@@H]1CSc1ccncc1)c1ccccc1 [Entry 107] | 92 µM | 2 µM | > 233 µM | 
27 | CC[C@@H](NC(=O)N1C(=O)C[C@@H]1CN(C)Cc1ccccc1)c1ccccc1 [Entry 137] | > 147 µM | 9.9 µM | > 147 µM | 
28 | CC[C@@H](NC(=O)N1C(=O)[C@@H](C)[C@@H]1CSc1ccncc1)c1ccccc1 [Entry 118] | 55 µM | 1.6 µM | 199 µM | 
29 | CC[C@@H](NC(=O)N1C(=O)[C@@H](C)[C@@H]1CSc1ccc(OC)cc1)c1ccccc1 [Entry 122] | > 250 µM | 4.8 µM | > 250 µM | 
30 | COC(=O)c1ccc(CN(C)C(=O)N2C(=O)C[C@@H]2CSc2nnnn2C)cc1 [Entry 309] | 130 µM | 1 µM | > 250 µM | 
31 | CC[C@@H](NC(=O)N1C(=O)C[C@@H]1COc1ccccc1)c1ccccc1 [Entry 130] | 101 µM | 5.2 µM | > 250 µM | 
32 | CN(Cc1ccc(C(F)(F)F)cc1)C(=O)N1C(=O)C[C@@H]1CSc1ncccn1 [Entry 301] | 95 µM | 1.7 µM | > 250 µM | 
